Marks after values point to notes of the source that are not given here. Where no end group is shown, it is not given here.
Tests used:
GRPR [1] = target: GRPR (Homo sapiens, UniProt P30550); assay: biochemical
Description: All experiments were performed in triplicate and 1 × 10^6 cells/dish were seeded one day before the experiment.

GRPR [2] = system: GRPR; parameters: method as in PMID 16818949, PMID 7876231; settings: within 20–40 min; cited from earlier work
[3] = Description: Lipophilicity was determined as the logarithm of partition coefficient, logP, of the radiolabelled compound between n-octanol and water. To determine the lipophilicity of both radioconjugates, 500 µL of n-octanol was added to a tube containing the same volume of Milli-Q water. 1 pmol (10 kBq) of radioconjugate was added. The mixture was vigorously vortexed for 1–2 min and then centrifuged. Aliquots of 100 μL were taken from each phase and their radioactivity was measured by an automated gamma-counter. The partition coefficient was calculated as the average log of a ratio of the radioactivity in organic and aqueous fractions. Each measurement was repeated in triplicate.
[4] = system: GRPR-expressing PC-3 tumour xenograft; settings: 0.5 h after injection; co-injection of non-labelled NOTA-PEG4-RM26
Description: (§1) Animal studies were planned and performed in agreement with EU Directive 2010/63/EU for animal experiments and Swedish national legislation concerning protection of laboratory animals. Experiments were approved by the Ethics Committee for Animal Research in Uppsala (C4/16, 26 February 2016). Biodistribution studies were performed in female BALB/C nu/nu mice purchased from Scanbur A/S (Karlslunde, Denmark). GRPR-expressing xenografts were established by subcutaneous injection of 5 × 10^6 PC-3 cells/mouse in the right hind leg of mice 3 weeks before the experiment. The animals were randomized into groups of four mice for each data point.
Mice were euthanized followed by dislocation of their neck at 0.5 h after injection and blood samples were collected by heart puncture. At 3 and 24 h after injection, mice were euthanized by an intraperitoneal injection of anaesthetic solution (20 µL of solution per gram of body weight: Ketalar, 10 mg/mL; Rompun, 1 mg/mL) followed by heart puncture. […] The organ radioactivity was measured in a gamma-counter and uptake values of organs were calculated as percentage of injected dose per gram tissue (% ID/g). To test the in vivo binding specificity, a group of mice was co-injected with 7.5 nmol of non-labelled peptide (NOTA-PEG4-RM26), and biodistribution was measured at 0.5 h after injection.

[5] = system: GRPR-expressing PC-3 tumour xenograft; assay: in vivo; settings: 0.5 h after injection; 40 pmol i.v.; non-blocked
Description: as §1
(§2) Mice were euthanized followed by dislocation of their neck at 0.5 h after injection and blood samples were collected by heart puncture. At 3 and 24 h after injection, mice were euthanized by an intraperitoneal injection of anaesthetic solution (20 µL of solution per gram of body weight: Ketalar, 10 mg/mL; Rompun, 1 mg/mL) followed by heart puncture. Salivary glands, thyroid, lung, liver, spleen, pancreas, stomach, small intestine, kidneys, tumour, muscle, and bone were collected and weighed. The organ radioactivity was measured in a gamma-counter and uptake values of organs were calculated as percentage of injected dose per gram tissue (% ID/g). To test the in vivo binding specificity, a group of mice was co-injected with 7.5 nmol of non-labelled peptide (NOTA-PEG4-RM26), and biodistribution was measured at 0.5 h after injection.

in vivo = settings: mouse, iv, 40 pmol, Uptake, 40 pmol i.v.; for tissue uptake at 0.5 h: 0.5 h after injection; for tissue uptake at 3 h: 3 h after injection; for tissue uptake at 24 h: 24 h after injection
Description: as §1, §2

[6] = small intestine, small intestine

GRPR (Homo sapiens, UniProt P30550), sequence (P30550 whole entry): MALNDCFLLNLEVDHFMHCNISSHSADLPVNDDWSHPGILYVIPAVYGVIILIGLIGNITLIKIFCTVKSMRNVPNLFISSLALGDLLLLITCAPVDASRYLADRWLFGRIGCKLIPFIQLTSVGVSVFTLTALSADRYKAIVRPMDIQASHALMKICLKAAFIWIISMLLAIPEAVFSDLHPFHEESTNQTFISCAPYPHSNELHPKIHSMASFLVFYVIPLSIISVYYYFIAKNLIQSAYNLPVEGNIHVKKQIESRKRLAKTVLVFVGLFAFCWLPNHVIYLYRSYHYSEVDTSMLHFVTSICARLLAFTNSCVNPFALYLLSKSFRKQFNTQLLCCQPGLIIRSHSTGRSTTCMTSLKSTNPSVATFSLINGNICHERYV

## CC(C)C[C@H](NC(=O)C[C@H](O)[C@H](CC(C)C)NC(=O)[C@H](Cc1c[nH]cn1)NC(=O)CNC(=O)[C@@H](NC(=O)[C@H](C)NC(=O)[C@H](Cc1c[nH]c2ccccc12)NC(=O)[C@H](CCC(N)=O)NC(=O)[C@@H](Cc1ccccc1)NC(=O)COCCOCCNC(=O)[C@@H](N)Cc1ccc(O)cc1)C(C)C)C(N)=O [Tyr-PEG2-RM26, Tyrosine-PEG2-[D-Phe^6, Sta^13, Leu^14] bombesin[6–14]]
GRPR [1]
  IC50: 1.7 ± 0.3 nM

## [^125I]I-GRP: agonistic radioiodinated gastrin-releasing peptide (VPLPAGGGTVLTKMYPRGNHWAVGHLM; ends and bridges not checked; also: 125I radioiodination, position not given here; UniProt P07492 24-50, looked up)
GRPR [2]
  Internalization: 75–80%

## CC(C)C[C@H](NC(=O)C[C@H](O)[C@H](CC(C)C)NC(=O)[C@H](Cc1c[nH]cn1)NC(=O)CNC(=O)[C@@H](NC(=O)[C@H](C)NC(=O)[C@H](Cc1c[nH]c2ccccc12)NC(=O)[C@H](CCC(N)=O)NC(=O)[C@@H](Cc1ccccc1)NC(=O)COCCOCCNC(=O)CN1CCN(CC(=O)O)CCN(CC(=O)O)CCN(CC(=O)O)CC1)C(C)C)C(N)=O [[^111In]In-DOTA-PEG2-RM26, metal not drawn, reference compound]
[3]
  logP: -2.6 ± 0.4
[4]
  Uptake in pancreas, blocked vs non-blocked group: significant (p < 0.05) reduction
[5]
  Uptake, tumour: 13.2 ± 4.8 ^a,h % ID/g
In vivo; blood, blood
  tissue uptake at 0.5 h: 2.1 ± 0.8 %ID/g
  tissue uptake at 3 h: 0.03 %ID/g
  tissue uptake at 24 h: 0.006 ± 0.002 %ID/g
In vivo; bone, bone
  tissue uptake at 0.5 h: 0.6 ± 0.3 %ID/g
  tissue uptake at 3 h: 0.05 ± 0.02 %ID/g
In vivo; kidney, kidney
  tissue uptake at 0.5 h: 9.1 ± 2.9 %ID/g
  tissue uptake at 3 h: 2.4 ± 0.3 %ID/g
In vivo; liver, liver
  tissue uptake at 0.5 h: 0.8 ± 0.2 %ID/g
  tissue uptake at 3 h: 0.2 %ID/g
  tissue uptake at 24 h: 0.1 %ID/g
In vivo; lung, lung
  tissue uptake at 0.5 h: 1.8 ± 0.4 %ID/g
  tissue uptake at 3 h: 0.1 %ID/g
In vivo; muscle, muscle
  tissue uptake at 0.5 h: 0.4 ± 0.1 %ID/g
  tissue uptake at 3 h: 0.02 %ID/g
In vivo; pancreas, pancreas
  tissue uptake at 0.5 h: 6.5 ± 1.4 %ID/g
  tissue uptake at 3 h: 0.2 %ID/g
In vivo; salivary gland, salivary gland
  tissue uptake at 0.5 h: 0.8 ± 0.2 %ID/g
  tissue uptake at 3 h: 0.07 ± 0.02 %ID/g
In vivo; [6]
  tissue uptake at 0.5 h: 1.5 ± 0.5 %ID/g
  tissue uptake at 3 h: 0.2 ± 0.1 %ID/g
In vivo; spleen, spleen
  tissue uptake at 0.5 h: 0.6 ± 0.2 %ID/g
  tissue uptake at 3 h: 0.1 %ID/g
In vivo; stomach, stomach
  tissue uptake at 0.5 h: 2.9 ± 1.1 %ID/g
In vivo; thyroid, thyroid
  tissue uptake at 0.5 h: 1.1 ± 0.5 %ID/g
  tissue uptake at 3 h: 0.1 %ID/g
In vivo; tumour, tumour, non-blocked
  tissue uptake at 0.5 h: 13 ± 5 %ID/g
In vivo; tumour, tumour
  tissue uptake at 3 h: 9.6 ± 0.6 %ID/g
  tissue uptake at 24 h: 3.6 ± 1.3 %ID/g
